The values below come from US20230066011A1, “PYRROLOPYRIMIDINE DERIVATIVE, AND PHARMACEUTICAL COMPOSITION FOR PREVENTING OR TREATING PROTEIN KINASE-RELATED DISEASE COMPRISING SAME AS ACTIVE INGREDIENT” (VORONOI CO., LTD., priority 2019, published 2023).

For one experiment, the system named is TNF-α. The experiment is described as follows: Inhibition of LPS-induced TNF-α secretion of THP-1 monocytes (ELISA). It is filed as cell-based, human. The following applies: Homo sapiens, THP-1; compound 0.5 μM, LPS 500 ng/mL, 24 hours; read-out: THP-1/TNF-α (% inhib). The protocol:
To evaluate an inhibitory effect on cytokine secretion of monocytes, THP-1 cells (ATCC, #TIB-202) as a human-derived monocyte line were cultured in an RPMI-1640 (Hyclone, SH30027.01) medium supplemented with 10% fetal bovine serum (Hyclone, SH30084.03), 1% penicillin streptomycin (Welgene, LS202-02), and 50 μM 2-mercaptoethanol (Gibco, #21985023). In the test, the cells were seeded in a 48-well plate (SPL, #30048) at a density of 1.5 to 2×10^5 cells/250 μL per well, and cultured at 37° C. for 16 hours in a 5% CO2 incubator. Thereafter, the compound was diluted with DMSO so that the final concentration of the compound was 0.5 μM. Then, the cells were treated with the diluted compound before an hour of treatment with lipopolysaccharides (LPS) (Sigma, #L6529). After the treatment with the compound, the cells were treated with LPS so that the final concentration was 500 ng/mL. Then, a cell culture broth was collected after 24 hours of culture, and levels of cytokine IL-6 (R&D Systems, #D6050) and TNF-α (R&D Systems, #DTA00D) comprised in the culture broth were measured using respective ELISA kits. After an experiment was performed according to the manufacturer's guidelines, cell analysis was performed by measuring the optical density at 450 nm using a microplate reader.

A further experiment deals with MDA-MB-468 cell line. As to the kind of experiment: Inhibition of proliferation of MDA-MB-468 cancer cells (Cell Titer-Glo). In kind it is cell-based. To be noted: Homo sapiens, MDA-MB-468, 72 hours. Put shortly: (§1)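 Luminescence from Cell Titer-Glo (10 min, room temperature) gave GI50 after 72 h compound treatment. Final compound levels spanned 0.000169–10.000000 μM over 11 points, 3-fold steps; 2,000 cells/well grown in DMEM or RPMI.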

The subject of another experiment is MDA-MB-231 cell line. As to the kind of experiment: Inhibition of proliferation of MDA-MB-231 cancer cells (Cell Titer-Glo). It is filed as cell-based. The following applies: Homo sapiens, 72 hours. Put shortly:
as §1

`O=C(c1ccc(Nc2nc(NC3CC3)c3c(C(F)(F)F)c[nH]c3n2)c2c1CCO2)N1CCC(N2CCOCC2)CC1` [Example 434, (7-((4-(cyclopropyl-amino)5-(trifluoromethyl)-7H-pyrrolo[2,3-d]pyrimidin-2-yl)amino)-2,3-dihydrobenzo-furan-4-yl)(4-morpho-linopiperidin-1-yl)methanone]: the inhibition at 0.5 µM in the experiment with TNF-α came out at 16%. Moreover, the GI50 in the experiment with MDA-MB-468 cell line is 301 to 1000 nM. On to `CNc1nc(Nc2cc(F)c(S(=O)(=O)N3CCC(N4CCOCC4)CC3)cc2OC)nc2[nH]cc(C(F)(F)F)c12` [Example 231, N^2-(5-fluoro-2-methoxy-4-((4-morpholinopiperidin-1-yl)sulfonyl)phenyl)-N^4-methyl-5-(trifluoromethyl)-7H-pyrrolo[2,3-d]pyrimidine-2,4-diamine], for which the GI50 in the experiment on MDA-MB-231 cell line lay in the range of 101 to 300 nM; in the experiment with MDA-MB-468 cell line, 301 to 1000 nM. Take `CCCNc1nc(Nc2ccc(C(=O)N3CCC(N4CCOCC4)CC3)c3c2OCC3)nc2[nH]cc(C(F)(F)F)c12` [Example 446, (4-morpholino-piperidin-1-yl)(7-((4-(propylamino)-5-(trifluoromethyl)-7H-pyrrolo[2,3-d]pyrimidin-2-yl)amino)-2,3-dihydrobenzo-furan-4-yl)methanone]: the inhibition at 0.5 µM in the experiment on TNF-α stood at 22.5%. Further, the concentration for 50% growth inhibition (GI50) in the experiment on MDA-MB-468 cell line fell in the range of 301 to 1000 nM.

Turning to `CCNc1nc(Nc2ccc(C(=O)N3CCC(N4CCOCC4)CC3)c3c2OCC3)nc2[nH]cc(C(F)(F)F)c12` [Example 438, (7-((4-(ethylamino)-5-(trifluoromethyl)-7H-pyrrolo[2,3-d]pyrimidin-2-yl)amino)-2,3-dihydrobenzo-furan-4-yl)(4-morpho-linopiperidin-1-yl)methanone], in the experiment with TNF-α, the inhibition at 0.5 µM worked out at 10.8%. The same compound yielded a GI50 in the experiment with MDA-MB-468 cell line of 301 to 1000 nM. Consider `COc1cc(S(=O)(=O)N2CCOCC2)ccc1Nc1nc(C2CC2)c2c(C#N)c[nH]c2n1` [Example 223, 4-cyclopropyl-2-((2-methoxy-4-(morpholinosulfonyl)phenyl)amino)-7H-pyrrolo[2,3-d]pyrimidine-5-carbonitrile], for which the concentration for 50% growth inhibition (GI50) in the experiment on MDA-MB-231 cell line and with MDA-MB-468 cell line was 301 to 1000 nM each time. The compound `CNc1nc(Nc2ccc(C(=O)N3CCC(N4CCOCC4)CC3)c3c2OCC3)nc2[nH]cc(C(F)(F)F)c12` [Example 217, (7-((4-(methylamino)-5-(trifluoromethyl)-7H-pyrrolo[2,3-d]pyrimidin-2-yl)amino)-2,3-dihydrobenzofuran-4-yl)(4-morpholinopiperidin-1-yl)methanone] came in with a GI50 with MDA-MB-468 cell line of 301 to 1000 nM.

As to `CCNc1nc(Nc2ccc(C(=O)N3CC[C@H](N4CCOCC4)C3)c3c2OCC3)nc2[nH]cc(C(F)(F)F)c12` [Example 475, (S)-(7-((4-(ethylamino)-5-(trifluoromethyl)-7H-pyrrolo[2,3-d]pyrimidin-2-yl)amino)-2,3-dihydrobenzo-furan-4-yl)(3-morpholino-pyrrolidin-1-yl)methanone], the inhibition at 0.5 µM in the experiment on TNF-α was found to be 4.7%. As for `CCNc1nc(Nc2ccc(C(=O)N3CCC(N4CCOCC4)CC3)c3c2OCC3)nc2[nH]cc(C#N)c12` [Example 347, 4-(ethylamino)-2-((4-(4-morpholino-piperidine-1-carbonyl)-2,3-dihydro-benzofuran-7-yl)amino)-7H-pyrrolo[2,3-d]pyrimidine-5-carbonitrile], in the experiment on TNF-α, the inhibition at 0.5 µM turned out to be 13.3%. For the compound `COc1cc(S(=O)(=O)N2CCC(N3CCOCC3)CC2)ccc1Nc1nc(C2CC2)c2c(C(F)(F)F)c[nH]c2n1` [Example 226], the concentration for 50% growth inhibition (GI50) in the experiment on MDA-MB-231 cell line and in the experiment on MDA-MB-468 cell line was 301 to 1000 nM each time. In the case of `CNc1nc(Nc2ccc(C(=O)N3CC[C@H](N4CCOCC4)C3)c3c2OCC3)nc2[nH]cc(C(F)(F)F)c12` [Example 236, (S)-(7-((4-(methylamino)-5-(trifluoromethyl)-7H-pyrrolo[2,3-d]pyrimidin-2-yl)amino)-2,3-dihydrobenzofuran-4-yl)(3-morpholinopyrrolidin-1-yl)methanone], the inhibition at 0.5 µM with TNF-α was found to be 13.6%.

Regarding `N#Cc1c[nH]c2nc(Nc3ccc(C(=O)N4CCC(N5CCOCC5)CC4)c4c3OCCO4)nc(C3CC3)c12` [Example 221, 4-cyclopropyl-2-((8-(4-morpholinopiperidine-1-carbonyl)-2,3-dihydrobenzo[b][1,4]dioxin-5-yl)amino)-7H-pyrrolo[2,3-d]pyrimidine-5-carbonitrile], the 50% growth inhibitory concentration (GI50) in the experiment with MDA-MB-468 cell line lay in the range of 301 to 1000 nM. `CCNc1nc(Nc2cc(F)c(S(=O)(=O)N3CCC(N4CCOCC4)CC3)cc2OC)nc2[nH]cc(C(F)(F)F)c12` [Example 232, N^4-ethyl-N^2-(5-fluoro-2-methoxy-4-((4-morpholinopiperidin-1-yl)sulfonyl)phenyl)-5-(trifluoromethyl)-7H-pyrrolo[2,3-d]pyrimidine-2,4-diamine]: the GI50 in the experiment on MDA-MB-231 cell line and in the experiment with MDA-MB-468 cell line was 301 to 1000 nM throughout. In the experiment with MDA-MB-468 cell line, `COc1cc(S(=O)(=O)N2CCC(N3CCOCC3)CC2)ccc1Nc1nc(C2CC2)c2c(C#N)c[nH]c2n1` [Example 224, 4-cyclopropyl-2-((2-methoxy-4-((4-morpholinopiperidin-1-yl)sulfonyl)phenyl)amino)-7H-pyrrolo[2,3-d]pyrimidine-5-carbonitrile] registered a concentration for 50% growth inhibition (GI50) below 50 nM. Consider `CCN1CCP(=O)(c2ccc(Nc3nc(C4CC4)c4c(C#N)c[nH]c4n3)c(OC)c2)CC1` [Example 261], for which, in the experiment with MDA-MB-468 cell line, the GI50 fell in the range of 301 to 1000 nM. `O=C(c1ccc(Nc2nc(NCC3CC3)c3c(C(F)(F)F)c[nH]c3n2)c2c1CCO2)N1CCC(N2CCOCC2)CC1` [Example 461, (7-((4-((cyclo-propylmeth-yl)amino)-5-(trifluoromethyl)-7H-pyrrolo[2,3-d]pyrimidin-2-yl)amino)-2,3-dihydrobenzo-furan-4-yl)(4-morpho-linopiperidin-1-yl)methanone]: the inhibition at 0.5 µM in the experiment with TNF-α is 2.3%. With `N#Cc1c[nH]c2nc(Nc3ccc(C(=O)N4CCOCC4)c4c3OCCO4)nc(NCC3CCCC3)c12` [Example 133, 4-((cyclopentylmethyl)amino)-2-((8-(morpholine-4-carbonyl)-2,3-dihydrobenzo[b][1,4]dioxin-5-yl)amino)-7H-pyrrolo[2,3-d]pyrimidine-5-carbonitrile], the GI50 in the experiment on MDA-MB-231 cell line lay within 101 to 300 nM; in the experiment with MDA-MB-468 cell line, 51 to 100 nM.

Regarding `COc1cc(P2(=O)CCN(C3CCOCC3)CC2)ccc1Nc1nc(NC2CC2)c2c(C(F)(F)F)c[nH]c2n1` [Example 435, 4-(4-((4-(cyclo-propylamino)-5-(trifluoromethyl)-7H-pyrrolo[2,3-d]pyrimidin-2-yl)amino)-3-methoxyphenyl)-1-(tetrahydro-2H-pyran-4-yl)-1,4-azaphosphinane 4-oxide], the inhibition at 0.5 µM in the experiment with TNF-α was 6.6%.

In turn, `O=C(c1ccc(Nc2nc(NC3CC3)c3c(C(F)(F)F)c[nH]c3n2)c2c1OCCO2)N1CCN(C2COC2)CC1` [Example 405, (8-((4-(cyclo-propylamino)-5-(trifluoromethyl)-7H-pyrrolo[2,3-d]pyrimidin-2-yl)amino)-2,3-dihydrobenzo[b] [1,4]dioxin-5-yl) (4-(oxetan-3-yl)piperazin-1-yl)methanone] yielded a GI50 in the experiment on MDA-MB-468 cell line of 301 to 1000 nM. As for `O=C(c1ccc(Nc2nc(NC3CCCCC3)c3c(C(F)(F)F)c[nH]c3n2)c2c1OCCO2)N1CCN(C2COC2)CC1` [Example 415, (8-((4-(cyclo-hexylamino)-5-(trifluoromethyl)-7H-pyrrolo[2,3-d]pyrimidin-2-yl)amino)-2,3-dihydrobenzo[b] [1,4]dioxin-5-yl) (4-(oxetan-3-yl)piperazin-1-yl)methanone], the GI50 with MDA-MB-468 cell line fell in the range of 101 to 300 nM.
